Laboratory results: patent US9752110B2, “Method and compositions of preserving wine” (YSDR, LLC, priority 2008, dated 2017)

Key:
[1] = system: eNOS; conditions: cited from earlier work
[2] = system: malolactic conversion; test: Effect on malolactic conversion in wine
Text: Another important process in wine-making is the Malolactic fermentation. Malic acid is naturally present in the grape must, but it adds an unpleasant taste to the wine. […] As discussed above, nearly all red wines undergo malolactic fermentation. As discussed above, the conversion is usually carried out by introducing a lactobacteria (most commonly the Oenococus-Oeni lactobacteria) to the wine after an initial fermentation step. […] Therefore, in wine preserved with resveratrol and/or pterostilbene, the malolactic fermentation can take place during the initial alcohol-fermentation process. That is, no separate step of malic and lactic fermentation needs to be carried out when wine is preserved with resveratrol and/or pterostilbene.

[3] = cited from earlier work
[4] = system: acetobacter xilum; test: Antibacterial specificity: acetobacter
[5] = system: lactobacilus; test: Antibacterial specificity: lactobacilli
[6] = system: bacteria and fungi in wine; conditions: cited from earlier work

| Compound | eNOS expression or eNOS promoter activity [1] | further results |
| --- | --- | --- |
| O=C(O)c1cc(O)c(O)c(O)c1 [gallic acid] | did not change |  |
| O=C(O)/C=C/c1ccc(O)cc1 [p-coumaric acid] | enhanced eNOS expression moderately |  |
| O=c1c(O)c(-c2cc(O)c(O)c(O)c2)oc2cc(O)cc(O)c12 [myricetin] | did not change |  |
| COc1cc(/C=C/C(=O)O)ccc1O [ferulic acid] | did not change |  |
| sulfur dioxide [SO2] |  | effect on malolactic conversion [2]: suppress the malolactic conversion |
| catechin | did not change |  |
| COc1cc(C=CC(=O)O)cc(OC)c1O (stereo in doubt) [sinapinic acid] | did not change |  |
| COc1cc(C(=O)O)ccc1O [vanillic acid] | enhanced eNOS expression moderately |  |
| O=C(O)/C=C/c1ccc(O)c(O)c1 [caffeic acid] | enhanced eNOS expression moderately |  |
| O=C(O)c1ccccc1 [benzoic acid] | enhanced eNOS expression moderately |  |
| COc1cc(/C=C/c2ccc(O)cc2)cc(OC)c1 [pterostilbene, 4-[(E)-2,(3,5-dimethoxyphenyl)ethenyl]phenol] |  | water solubility [3]: less water soluble than resveratrol |
| Oc1ccc(/C=C/c2cc(O)cc(O)c2)cc1 [Resveratrol, 3,4′,5-trihydroxy-trans-stilbene] | most efficacious stimulator | inhibition of acetobacter xilum [4]: specific inhibitor; anti-bacterial properties against lactobacilus [5]: no anti-bacterial properties; antibacterial and antifungal activity in wine [6]: antibacterial and antifungal activity |
| O=c1c(O)c(-c2ccc(O)c(O)c2)oc2cc(O)ccc12 [fisetin] | did not change |  |
